Test system: M-Rezeptoren der Bronchien, des Herzens und der Harnblase
Assay: Effect on M receptors of bronchi, heart and urinary bladder of anaesthetised guinea pigs (acetylcholine-induced bronchoconstriction, bradycardia, bladder tension)
Type: in vivo, Meerschweinchen
Excerpt: 1. Wirkung auf M-Rezeptoren der Bronchien, des Herzens und der Harnblase anaesthetisierter Meerschweinchen
Meerschweinchen beiderlei Geschlechts (550-600 g Körpergewicht) wurden mit Urethan (1,4 gikg, i.p.) anaesthetisiert. Eine Kanüle wurde zur Injektion der Wirkstoffe in die Jugularvene eingeführt. 220 1.U."kg Heparin wurden intravenös injiziert. Es wurde eine Kanüle in die Trachea eingeführt; die Tiere wurden künstlich mit sauerstoffangereicherter Luft mittels einer positiven Druckpumpe (Braun-Melsungen) bei einer Rate von 80 Schlägen pro Minute beatmet. Ein Ast der Trachealkanüle wurde mit einem Wassermanometer von 10 cm Höhe verbunden. Das Beatmungsvolumen wurde so eingestellt, daß der maximale intratracheale Druck während der Beatmung gerade den Druck einer 10 cm-Wassersäule erreichte.
Die Werte wurden mit einem IFD Aufnahmegerät registriert. Vor dem Versuch wurde die Trachea für eine kurze Zeit abgeklemmt, um den maximal möglichen Grad der Bronchokonstriktion zur Kalibrierung zu erzeugen. […] Die Herzfrequenz wurde mit einem Frequenzmesser, der durch arterielle Pulswellen ausgelöst wird, gemessen.
Es wurde ein kleiner medianer Bauchschnitt gesetzt und die Harnblase an einem Kraft-Transducer unter einer Ruhespannung von 1 Gramm angebunden.
Die zu testenden Wirksubstanzen wurden über die Jugularvene injiziert, 5 Minuten später wurde die Spannungszunahme der Blase (in Gramm), der Bronchialwiderstand (in %) und die Abnahme der Herzfrequenz (Schläge pro Minute) nach Gabe von Acetylcholin (50 ug/kg i.v. und i.a.) gemessen. Es wurden dosis-abhängige Kurven durch Wiedergabe der prozentualen Hemmung der Bronchokonstriktion, Bradycardie und der Spannungszunahme der Blase gegen den Logarithmus der Dosis (mol/kg) der zu untersuchenden Wirkstoffe aufgezeichnet. Die Ergebnisse werden angegeben als Mittel- werte (n=4-6). Ergebnisse siehe Tabelle I.

[1] = qualitative statement on reference substances, summing up the tests of Tabelle I-III

Row | Structure (SMILES) | Selektivität (glatte Muskulatur gegenüber Herzfrequenz oder Speichelsekretion) (in vivo) | Selektivität (glatte Muskulatur gegenüber Herzfrequenz oder Speichelsekretion) [1]
1 | CN1C2CCC1CC(OC(=O)C(CO)c1ccccc1)C2 (racemic) [Z, Atropin] | keine Selektivität | 
2 | CCN(CC)CC1CCCCN1CC(=O)N1c2ccccc2C(=O)Nc2cccnc21 (stereo not drawn) [X, 11-[[2-[(Diethylamino)methyl]-1-piperidinyl]acetyl]-5,11-dihydro-6H-pyrido[2,3-b][1,4]benzodiazepin-6-on] |  | höhere Wirksamkeit auf kardiale Muskarinrezeptoren
3 | CN1CCN(CC(=O)N2c3ccccc3C(=O)Nc3cccnc32)CC1 [Y, 5,11-Dihydro-11-[(4-methyl-1-piperazinyl)acetyl]-6H-pyrido[2,3-b][1,4]benzodiazepin-6-on] |  | keine Selektivität

Reference: EP0417631A2, “Condensed diazepinones, process for their preparation, and medicaments containing these compounds” (Dr. Karl Thomae GmbH, priority 1989, dated 1991)
